We go through 1 molecule from patent publication US12319967B2, “Methods and compositions for diagnosing and treating prostate cancer based on long noncoding RNA overlapping the LCK gene that regulates prostate cancer cell growth” (University of Virginia Patent Foundation, priority 2019, dated 2025).

The assay relates to HULLK. The assay can be described thus: qPCR of HULLK (LCK 3'UTR / exon 13) transcript levels in response to hormone and AR, p300 or Brd4 inhibition. It counts as cell-based, human. To be noted: for HULLK expression in response to R1881: 1 nM R1881; for R1881-induced increase in LCK 3'UTR transcript levels: 1 nM R1881, 24 hrs. The method, then: FIGS. 2A through 2E illustrate that HULLK is an AR-regulated lncRNA. […] LNCaP and C42 cells were transduced with two independent shRNAs to LCK and treated with 0-1 nM R1881. RNA was collected on Day 4 and LCK transcript levels were determined using LCK primers targeting the 3′UTR. […] LNCaP and C42 cells were seeded for 48 hrs, and then, treated with 1 nM R1881 in the presence or absence of 10 μM enzalutamide. RNA was collected 24 hrs after treatment and LCK transcript levels were determined by qPCR using LCK primers targeting the 3′UTR. C4-2, DU145, and PC3 cells were seeded in CSS media for 48 hrs, and then, treated with 1 nM R1881 for 16 hrs. RNA was collected and LCK transcript levels were determined using LCK primers targeting the 3′UTR. […] FIG. 2E illustrates that Brd4 inhibition reduces the hormone induction of HULLK, n=3. LNCaP, C42, or Jurkat cells were seeded for 48 hrs in the appropriate growth media, and then, treated with 1 nM R1881 in the presence or absence of 0.3 μM A-485 or 0.1 μM JQ1. RNA was collected 24 hrs after treatment and LCK transcript levels were determined by qPCR using LCK primers targeting exon 13 or 3′UTR. PSA and TMPRSS2 transcripts were determined to verify the efficacy of p300 and Brd4 inhibition.
FIGS. 7A and 7B illustrate the regulation of HULLK by the AR in breast cancer cells. […] LNCaP, MCF7, BT549, and MDA-MD-231 cells were seeded in the appropriate growth media, and whole cell lysates were collected 48 hrs later and blotted for AR21 and ERK1/2. […] MCF7, BT549, and MDA-MB-231 cells were seeded in CSS media for 48 hrs, and then, treated with 1 nM R1881 for 16 hrs. RNA was collected and LCK transcript levels were determined using LCK primers targeting the 3′UTR, n=3.
Cell Culture and Reagents. LNCaP and C4-2 cells (a gift from Dr. L. W. K. Chung) were grown in DMEM:F12 (Invitrogen) with 5% Non-Heat-Inactivated serum (Gemini) and 1% Insulin-Transferrin-Selenium-Ethanolamine (ThermoFisher). CWR22Rv1 (Rv1), VCaP, PC3 (gifts from Drs. Steven Balk, Karen Knudsen, and Chung, respectively), WMPY-1 (ATCC), MCF7, BT549 and MDA-MB-231 (gifts from Dr. Amy Bouton) were grown in DMEM (Invitrogen) with 10% Heat-Inactivated serum. DU145 (a gift from Dr. Chung), PANC1 (a gift from Dr. J. Thomas Parsons), HeLa and Jurkat cells (gifts from Dr. Tim Bender) were grown in RPMI-1640 (Invitrogen) with 10% Heat-Inactivated serum. LHS cells (a gift from Dr. William Hahn) were grown in ProstaLife Epithelial Cell Medium (Lifeline). RWPE-1 (ATCC) cells were grown in Keratinocyte-Serum-Free Media (Invitrogen). For growth and RNA experiments, phenol-red free DMEM:F12 media with 5% Charcoal-Stripped Serum (CSS) (Gemini) was used.
RNA Isolation, qPCR and ddPCR: RNA was collected using TRIzol and quantitated using a NanoDrop 2000 UV-Vis Spectrophotometer (ThermoFisher). cDNA was synthesized using Superscript IV VILO cDNA synthesis kit (Invitrogen). Quantitative real-time PCR (qPCR) was performed as previously described (17,18). Droplet digital PCR (ddPCR) was executed according to the manufacturer's protocol (Bio-Rad).
To assess whether this lncRNA is modulated by hormone, transcript levels of this lncRNA were quantified by qPCR using 3′UTR primers in LNCaP and C4-2 cells transduced in the presence of increasing concentrations of R1881 (FIG. 2A). […] This increase was inhibited in the presence of two independent LCK shRNAs in both cell lines.
This hormone regulation was confirmed by measuring transcript amounts in LNCaP and C4-2 cells treated with vehicle or R1881 in the presence or absence of the anti-androgen enzalutamide (FIG. 2B). As expected, there was an 8-fold and 12-fold R1881-induced increase in LCK 3′UTR transcript levels in LNCaP and C4-2 cells, respectively. […] Androgen deprivation influenced message levels negligibly in LNCaP cells, but decreased transcript amounts of this lncRNA by approximately 2.9-fold in C4-2 cells (FIG. 2B, C4-2 vehicle vs. media). […]
On the technique in general: Quantitative PCR measures a nucleic acid by following its amplification.

With `C[C@]1(O)CC[C@H]2[C@@H]3CCC4=CC(=O)CCC4=C3C=C[C@@]21C` [R1881], for the setting “AR-null DU145 and PC3 cells, 1 nM R1881, 16 hrs”, the “R1881-induced increase in this lncRNA (HULLK)” value is on record as “no R1881-induced increase”. The “HULLK expression in response to R1881” value is given as “not” (BT549 or MDA-MB-231 cells) and “increases” (MCF7 cells). In addition, the “R1881-induced increase in LCK 3'UTR transcript levels” value runs as follows: (C4-2 cells) 12 fold; (LNCaP cells) 8 fold. Under “LNCaP and C4-2 cells, 0-1 nM R1881, 3'UTR primers”, the “lncRNA transcripts in response to increasing concentrations of R1881” value is recorded as “dose-dependent increase”.
